The source of these data is US7659404B2, “Broad spectrum 2-(substituted-amino)-benzothiazole sulfonamide HIV protease inhibitors” (Tibotec Pharmaceuticals Ltd., priority 2001, dated 2010).

Where two headings read alike, the source gives them in different places.

The nature of series [1]: Pharmacokinetics after oral dosing in dogs (LC-MS). The series is classed as in vivo. The following applies: blood, 10 mg/kg, or, dog, 10 mpk. As for the experimental part: (§1) The pharmacokinetic properties of compounds 20, 88 and 90 were tested on rats and dogs. The compounds were evaluated in Whistar rats, source Iffa Credo, weighing approximately 350 g. Before dosing the animals were fasted overnight (approximately 12 h fasting period). The compounds were dissolved in DMSO. The results represented in the table concern the results from the oral dosing of the compounds. Blood was sampled at 30 min, 1 h, 2 h, 3 h, no pre-dose sample was taken. The amount of the compound in the biological sample was determined using LC-MS. In the table below “or” means oral dosing, “mpk” means mg per kilogram.

Series [2] deals with HIV-1 strain LAI. The series is described as follows: Cellular anti-HIV assay in MT4 cells (MTT), wild type laboratory strain. In kind it is cell-based. The following applies: read-out: EC50 value against HIV-1 strain LAI. As for the experimental part:
The compounds of the present invention were examined for anti-viral activity in a cellular assay. […] The cellular assay was performed according to the following procedure.
Cellular Assay Experimental Method:
HIV- or mock-infected MT4 cells were incubated for five days in the presence of various concentrations of the inhibitor. At the end of the incubation period, all HIV-infected cells have been killed by the replicating virus in the control cultures in the absence of any inhibitor. Cell viability is measured by measuring the concentration of MTT, a yellow, water soluble tetrazolium dye that is converted to a purple, water insoluble formazan in the mitochondria of living cells only. Upon solubilization of the resulting formazan crystals with isopropanol, the absorbance of the solution is monitored at 540 nm. The values correlate directly to the number of living cells remaining in the culture at the completion of the five day incubation. The inhibitory activity of the compound was monitored on the virus-infected cells and was expressed as EC50 and EC90. These values represent the amount of the compound required to protect 50% and 90%, respectively, of the cells from the cytopathogenic effect of the virus. The toxicity of the compound was measured on the mock-infected cells and was expressed as CC50, which represents the concentration of compound required to inhibit the growth of the cells by 50%. The selectivity index (SI) (ratio CC50/EC50) is an indication of the selectivity of the anti-HIV activity of the inhibitor.

Series [3] is described as follows: Pharmacokinetics after oral dosing in rats (LC-MS). The series is classed as in vivo, Whistar rats. The following applies: for concentration at 3 h / Cmax: Wistar, blood, 10 mg/kg, or, rat, 10 mpk, DMSO; for concentration at 3 h: oral, read-out: C3hours; for Cmax: po. As to the method: as §1
Series [4] deals with virus strain S (R13080). Briefly: microbe, parasite or virus in culture. The following applies: FR=EC50(mutant strain)/EC50(HIV-1 strain LAI); strain S. The series is classed as cell-based, HIV. The method, boiled down:
(§2)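 Anti-HIV activity against multiply mutated clinical isolates is measured in MT4 cells over a five-day incubation, using MTT viability (540 nm) as a proxy for protection from viral cytopathicity. Values are reported as EC50 or as fold change versus the LAI reference strain.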

Series [5] relates to virus strain F (R13025). Briefly: microbe, parasite or virus in culture. In kind it is cell-based, HIV. The following applies: FR=EC50(mutant strain)/EC50(HIV-1 strain LAI); strain F. In outline: as §2
Series [6] relates to clinically isolated HIV strain J. In kind it is cell-based. The following applies: FR=EC50(mutant strain)/EC50(HIV-1 strain LAI). In outline: as §2
Series [7] concerns clinically isolated HIV strain H. The series is classed as cell-based. The following applies: FR=EC50(mutant strain)/EC50(HIV-1 strain LAI). In outline: as §2
Series [8] relates to clinically isolated HIV strain T. The series is classed as cell-based. The following applies: FR=EC50(mutant strain)/EC50(HIV-1 strain LAI). In outline: as §2
In series [9] the test system is clinically isolated HIV strain I. The series is classed as cell-based. The following applies: FR=EC50(mutant strain)/EC50(HIV-1 strain LAI). The method, boiled down:
as §2

The subject of series [10] is clinically isolated HIV strain O. In kind it is cell-based. The following applies: FR=EC50(mutant strain)/EC50(HIV-1 strain LAI). The method, boiled down: as §2
Series [11] has as its system clinically isolated HIV strain K. The series is described as follows: Antiviral spectrum, cellular assay (fold resistance), strain K. In kind it is cell-based. The following applies: FR=EC50(mutant strain)/EC50(HIV-1 strain LAI). In outline: (§3)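 Cytoprotection of HIV-infected MT4 cells was measured after five days' exposure to compound, using mitochondrial MTT conversion (absorbance 540 nm) as the viability signal. Each isolate's EC50 was normalised to that for HIV-1 LAI to give fold resistance.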

Series [12] relates to clinically isolated HIV strain N. The series is described as follows: Antiviral spectrum, cellular assay (fold resistance), strain N. The series is classed as cell-based. The following applies: FR=EC50(mutant strain)/EC50(HIV-1 strain LAI). In outline:
as §3

Series [13] has as its system clinically isolated HIV strain R. Briefly: Antiviral spectrum, cellular assay (fold resistance), strain R. The series is classed as cell-based. The following applies: FR=EC50(mutant strain)/EC50(HIV-1 strain LAI). The method, boiled down:
as §3

The test system of series [14] is clinically isolated HIV strain G. Briefly: Antiviral spectrum, cellular assay (fold resistance), strain G. The series is classed as cell-based. The following applies: FR=EC50(mutant strain)/EC50(HIV-1 strain LAI). The method, boiled down: as §3
Series [15] deals with clinically isolated HIV strain Q. The series is described as follows: Antiviral spectrum, cellular assay (fold resistance), strain Q. The series is classed as cell-based. The following applies: FR=EC50(mutant strain)/EC50(HIV-1 strain LAI). The method, boiled down: as §3
The subject of series [16] is clinically isolated HIV strain E. The series is described as follows: Antiviral spectrum, cellular assay (fold resistance), strain E. In kind it is cell-based. The following applies: FR=EC50(mutant strain)/EC50(HIV-1 strain LAI). The method, boiled down:
as §3

Series [17] relates to clinically isolated HIV strain D. The series is described as follows: Antiviral spectrum, cellular assay (fold resistance), strain D. The series is classed as cell-based. The following applies: FR=EC50(mutant strain)/EC50(HIV-1 strain LAI). The method, boiled down:
as §3

The subject of series [18] is clinically isolated HIV strain M. Briefly: Antiviral spectrum, cellular assay (fold resistance), strain M. The following applies: FR=EC50(mutant strain)/EC50(HIV-1 strain LAI). In kind it is cell-based. In outline:
as §3

In series [19] the test system is clinically isolated HIV strain C. Briefly: Antiviral spectrum, cellular assay (fold resistance), strain C. The following applies: FR=EC50(mutant strain)/EC50(HIV-1 strain LAI). The series is classed as cell-based. The method, boiled down:
as §3

Series [20] relates to clinically isolated HIV strain L. Briefly: Antiviral spectrum, cellular assay (fold resistance), strain L. The series is classed as cell-based. The following applies: FR=EC50(mutant strain)/EC50(HIV-1 strain LAI). The method, boiled down: as §3
The subject of series [21] is clinically isolated HIV strain P. Briefly: Antiviral spectrum, cellular assay (fold resistance), strain P. The series is classed as cell-based. The following applies: FR=EC50(mutant strain)/EC50(HIV-1 strain LAI). In outline:
as §3

In series [22] the test system is clinically isolated HIV strain B. The series is described as follows: Antiviral spectrum, cellular assay (fold resistance), strain B. In kind it is cell-based. The following applies: FR=EC50(mutant strain)/EC50(HIV-1 strain LAI). The method, boiled down: as §3
Series [23] deals with clinically isolated HIV strain A. The series is described as follows: Antiviral spectrum, cellular assay (fold resistance), strain A. The series is classed as cell-based. The following applies: FR=EC50(mutant strain)/EC50(HIV-1 strain LAI). In outline:
as §3

Where [24] appears, read: Human immunodeficiency virus 1, 120 h, MT4 cells, five days, MTT.

For `CC(C)CN(C[C@@H](O)[C@H](Cc1ccccc1)NC(=O)O[C@H]1CO[C@H]2OCC[C@H]21)S(=O)(=O)c1ccc2nc(N(C)CCCN(C)C)sc2c1` [Compound 88], the values for the Cmax in series [1] ((PEG)) and in series [3] were 379 ng/mL and 254 ng/mL, respectively. Further, the EC50 in series [2] (setting [24]) is under 50 nM. In addition, in series [3], the concentration at 3 h turned out to be 225 ng/mL. Moreover, the “fold resistance (FR), strain S” value in series [4] came to 26.3. The “fold resistance (FR), strain F” value in [5] came to 8.7.

In turn, `CC(C)CN(C[C@@H](O)[C@H](Cc1ccccc1)NC(=O)O[C@H]1CO[C@H]2OCC[C@H]21)S(=O)(=O)c1ccc2nc(NCCN3CCCC3)sc2c1` [Compound 20] displayed a Cmax in series [1] (DMSO) of 713 ng/mL. Besides, in series [2] (Human immunodeficiency virus 1, MT4, 120 h), the concentration giving a half-maximal response (EC50) was 50 to 500 nM. In series [6], the “fold resistance (FR), strain J” value was found to be 0.2. In addition, the “fold resistance (FR), strain H” value in [7] is given as 0.5. Also, in series [8], the “fold resistance (FR), strain T” value amounted to 2.6. Further, the “fold resistance (FR), strain I” value in series [9] stood at 0.4. In addition, in series [10], the “fold resistance (FR), strain O” value stood at 0.2. In series [3], the concentration at 3 h turned out to be 401 ng/mL and the highest level (Cmax) was 1420 ng/mL. Moreover, the plasma level result in series [3] (oral dosing, comment on Table 8 (rats and dogs)) is given as “high”. For the same molecule, the “fold resistance (FR), strain S” value in series [4] is listed as 0.5. In addition, in series [5], the “fold resistance (FR), strain F” value amounted to 0.5.

With `CC(C)CN(CC(O)C(Cc1ccccc1)NC(=O)OC1COC2OCCC12)S(=O)(=O)c1ccc2nc(NC(=O)CN3CCCC3)sc2c1` (stereo not drawn) [Compound 12], the “fold resistance (FR), strain K” value in series [11] is 0.2. The “fold resistance (FR), strain N” value in series [12] was 0.4. The “fold resistance (FR), strain R” value in series [13] is 0.4. The “fold resistance (FR), strain G” value in series [14] is given as 0.2. The “fold resistance (FR), strain Q” value in [15] turned out to be 0.4. Moreover, in [16], the “fold resistance (FR), strain E” value came out at 0.4. The “fold resistance (FR), strain D” value in series [17] is 0.4. Moreover, the “fold resistance (FR), strain M” value in series [18] is on record as 0.2. Also, in series [2] (setting [24]), the EC50 is under 50 nM. Also, the “fold resistance (FR), strain C” value in series [19] is recorded as 0.3. In addition, the “fold resistance (FR), strain L” value in [20] is on record as 0.1. For the same molecule, the “fold resistance (FR), strain P” value in series [21] is on record as 0.1. Further, in series [6], the “fold resistance (FR), strain J” value came out at 0.3. In addition, in series [7], the “fold resistance (FR), strain H” value was 0.4. For the same molecule, the “fold resistance (FR), strain T” value in series [8] came to 5.9. In series [9], the “fold resistance (FR), strain I” value is 0.4. For the same molecule, the “fold resistance (FR), strain O” value in [10] is listed as 0.4. For the same molecule, the “fold resistance (FR), strain B” value in [22] is on record as 0.4. In addition, the “fold resistance (FR), strain A” value in series [23] stood at 0.3. Also, the “fold resistance (FR), strain S” value in series [4] is 0.8. For the same molecule, in series [5], the “fold resistance (FR), strain F” value turned out to be 0.4.
